Earlier results on one compound are cited in patent publication US20140234406A1, “NOVEL NANOPARTICULATE SUSPENSION FOR INCORPORATING FAT-SOLUBLE VITAMINS IN THE TREATMENT OF HAIR THINNING and HAIR LOSS” (HairRx, priority 2013, published 2014).

For the data set the following is noted: biological half-life; reported by Yap et al. 2001 and Schwedhelm et al. 2003.

Each structure is given as a SMILES string.

With `Cc1c(C)c2c(c(C)c1O)CC[C@@](C)(CCC[C@H](C)CCC[C@H](C)CCCC(C)C)O2` [alpha-tocopherol], the half-life was 73 to 81 h.

As usually defined, the half-life is the time in which the quantity being followed falls by half.
